SMILES strings stand for the structures. Like-named read-outs stand apart in the source and are kept apart here.

The text below walks through data of patent US11026426B2, “Oxadiazole and phenol derivatives as antibacterial and/or herbicidal agents” (NORTHERN ILLINOIS RESEARCH FOUNDATION, priority 2017, dated 2021).

Experiment [1] concerns the target T1, Ec IspD (Escherichia coli, UniProt Q46893). The experiment is described as follows: EnzChek enzymatic activity assay Ec IspD. Type of experiment: biochemical.
Method: The EnzChek® assay has a phosphate sensitivity of 2-150 μM. To ensure there is no interference caused by assay components, three standards were performed on each plate: buffer only, without CTP and without MEP.
Here, for the plate-based assay, IspD converts MEP to CDP-ME pyrophosphate, which in turn is converted to inorganic phosphate (Pi) with the enzyme inorganic pyrophosphatase. The EnzChek® Phosphate Assay kit follows the formation of the inorganic phosphate through a reaction with 2-amino-6-mercapto-7-methylpurine riboside (MESG) and the enzyme purine nucleoside phosphorylase (PNP). This reaction converts the MESG into ribose 1-phosphate and 2-amino-6-mercapto-7-methylpurine resulting in a spectrophotometric shift in a maximum absorbance from 330 nm to 360 nm. Reactions were performed in 50 μL final volumes in 96-well clear flat bottom plates, and were initiated by addition of 50 ng purified Ec IspD. Absorbance at 360 nm was measured every 31 seconds for 20 minutes on a Synergy 2 Multi-Mode plate reader (BioTek), preheated to 37° C. Final concentration of reagents was as follows: 1×EnzChek® reaction buffer (50 mM Tris pH 7.5, 1 mM magnesium chloride (MgCl2), 100 μM sodium azide (NaN3)), 0.2 mM MESG, 1 U/ml PNP, 1 U/mL inorganic Pyrophosphatase (NEB), 200 mM CMP (Sigma), and 50 μM MEP (Echelon).
Experiment [2] deals with T1, Ec IspD. The experiment is described as follows: Thermal shift (DSF) screening against Ec IspD. Type of experiment: binding. The following applies: MicroSource Spectrum screening. The method, then:
The library based screening technique in conjunction with the thermal shift assay was implemented to evaluate compounds from Spectrum collection.
All DSF experiments were performed in 50 mM phosphate buffer at pH 7.4, 150 mM NaCl, 1×SYPRO orange, 2% DMSO and 200 to 1000 nM of the enzyme with a total volume of 25 μL. Final enzyme concentrations used were […] for Ec IspD and 0.5 μM for Bt IspD. Samples were measured on a Bio-Rad iQ5 Real-Time PCR (Bio-Rad Life Sciences) using a temperature range of 25 to 95° C. at a rate of 1° C. per minute with the fluorescence measured every 0.5° C. every 10 seconds with wavelengths of 530 and 570 nm used for excitation and emission, respectively. The melting temperature (Tm value) was determined from the first derivative of the graph of relative fluorescence units vs. temperature.

T1 sequence (Q46893 whole entry): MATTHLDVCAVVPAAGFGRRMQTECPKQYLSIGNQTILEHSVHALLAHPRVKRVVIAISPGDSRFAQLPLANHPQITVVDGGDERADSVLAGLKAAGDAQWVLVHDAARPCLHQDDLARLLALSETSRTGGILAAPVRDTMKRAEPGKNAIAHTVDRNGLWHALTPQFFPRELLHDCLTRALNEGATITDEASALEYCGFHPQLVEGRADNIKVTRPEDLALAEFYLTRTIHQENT

`O=C(/C=C/c1ccc(O)cc1)c1ccc(O)cc1O` [isoliquiritigenin] returned an IC50 in experiment [1] of 279 ± 12 µM.
Regarding `C[CH2][Hg][S]c1ccccc1C(=O)[O-].[Na+]` [thimerosal, reference compound], in experiment [2], the “change in the observed melting temperature of Ec IspD” value is “+3.53 °C”. For the same compound, the half-inhibitory concentration (IC50) in experiment [1] (EnzChek assay, read-out: Ec IspD IC50) is 381 ± 12 µM.

Usually IC50 stands for the concentration that gives 50% inhibition.
